Measurements: US9260382B2, “Methods of reducing virulence in bacteria” (priority 2010, dated 2016)

Key:
HrpW protein = assay: HrpW immunoblot analysis; format: cell-based, Pseudomonas syringae pv. tomato DC3000; conditions: HIM supplemented with 250 μM
Procedure: The HrpW protein level was determined by immunoblot using anti-HrpW antibody provided by Dr. Alan Collmer (Cornell University, Ithaca, N.Y.). Sample preparation was performed as previously described with modifications (Yuan and He 1996). Wild-type DC3000 was grown overnight in King's B medium at 28° C. The culture was washed with hrp-inducing medium (HIM) and resuspended in 40 ml of the same medium to an optical density (OD) at 600 nm of 0.1. To determine the effect of TCA on the HrpW protein level, TCA dissolved in DMSO was added to the culture at the final concentration of 250 μM and the culture was grown with moderate shaking at 28° C. DMSO was added to a separate culture as a negative control. After 9 h, the cells were collected by centrifugation at 4,000×g for 10 min and resuspended in 1 ml of phosphate buffered saline (PBS; 137 mM NaCl, 2.7 mM KCl, 4.3 mM Na2HPO4, and 1.47 mM KH2PO4 [pH 7.4]). […]

hrpW mRNA = assay: Real-time PCR of hrpW in DC3000; format: cell-based, Pseudomonas syringae pv. tomato DC3000; conditions: HIM supplemented with 250 μM, 9 h
Procedure: DC3000 was cultured in KB medium overnight at 28° C. and subcultured in HIM medium supplemented with DMSO or with 250 μM TCA for 9 h. Total bacterial RNA was isolated using RNeasy Mini Kit (QIAGEN, Valencia, Calif.) and treated with Turbo DNA-free DNase kit (Ambion, Austin, Tex.). cDNA was synthesized using iScript cDNA Synthesis Kit (Bio-Rad, Hercules, Calif.) from 0.8 μg of total RNA. The Real Master Mix SYBR ROX (5 PRIME, Gaithersburg, Md.) was used for real-time PCR reactions to quantify the cDNA level of target genes in different samples. Data were collected by the Opticon 2 system (Bio-Rad) and analyzed using Relative Expression Software Tool as described by Pfaffl and associates (Pfaffl et al. 2002). Two housekeeping genes, gyrA (PSPTO1745) and gap1 (PSPTO1287) were used as endogenous controls for data analysis. The PCR efficiencies of the primers are: gyrA, 1.93; gap1, 2.08; and hrpW, 1.93.

dspE mRNA = assay: qRT-PCR relative mRNA level of dspE; format: cell-based, Dickeya dadantii 3937; conditions: 0.1 mM in MM
Procedure: (§1) Bacterial strains were grown in MM. Total RNA from the bacterial cells was isolated by using the TRI reagent method (Sigma, Mo.) and treated with Turbo DNA-free DNase kits (Ambion, Tex.) as described (Peng et al., 2006). An iScript cDNA Synthesis Kit (Bio-Rad, CA) was used to synthesize cDNA from 0.5 μg of treated total RNA. The Real Master Mix (Eppendorf, Westbury, N.Y.) was used for qRT-PCR reaction to quantify the cDNA level of target genes in different samples. The rplU was used as the endogenous control for data analysis. qRT-PCR data were analyzed using Relative Expression Software Tool as described (Pfaffl, M. W., Horgan, G. W., and Dempfle, L. (2002) Relative expression software tool (REST) for group-wise comparison and statistical analysis of relative expression results in real-time PCR. Nucleic Acids Res 30:e36.).

HrpN protein = HrpN protein expression (FIG. 15); format: cell-based, Dickeya dadantii 3937; conditions: MM supplemented with 0.1 mM (FIG. 15)
From the text: To further elucidate whether T3SS gene expression is mainly regulated through the HrpX/Y-HrpS-HrpL regulatory pathway, the expression of hrpA and hrpN in wild-type Ech3937 and hrpX (WPP67), hrpY (WPP92), hrpS (WPP90), and hrpL (WPP96) mutants in MM were examined. […] Similar expression of hrpA and hrpN was observed among WPP67, WPP92, WPP90 and WPP96 carrying phrpA and phrpN grown in MM and MM supplemented with PCA. […] Since PCA represses the expression of several T3SS genes such as hrpN, the effect of PCA on protein production of HrpN was further examined.

hrpL mRNA = assay: qRT-PCR relative mRNA level of hrpL; format: cell-based, Dickeya dadantii 3937; conditions: MM supplemented with 0.1 mM
Procedure: as §1

hrpA mRNA = assay: qRT-PCR relative mRNA level of hrpA; format: cell-based, Dickeya dadantii 3937; conditions: 0.1 mM in MM
Procedure: as §1

hrpN mRNA = assay: qRT-PCR relative mRNA level of hrpN; format: cell-based, Dickeya dadantii 3937; conditions: 0.1 mM in MM
Procedure: as §1

Row | SMILES | HrpW protein in culture supernatants, immunoblot, in words (HrpW protein) | HrpW protein in whole cell lysates, immunoblot, in words (HrpW protein) | hrpW mRNA relative expression ratio vs HIM alone (hrpW mRNA) | dspE mRNA compared with MM alone, in words (dspE mRNA) | HrpN protein amount compared with MM alone, in words (HrpN protein) | hrpL mRNA relative expression ratio (MM alone normalized to 1) (hrpL mRNA) | hrpA mRNA compared with MM alone, in words (hrpA mRNA) | hrpN mRNA compared with MM alone, in words (hrpN mRNA)
1 | O=C(O)/C=C/c1ccccc1 [Compound 001, trans-cinnamic acid] | absent from the culture supernatants | undetectable in the whole cell lysates | 0.07 |  |  |  |  | 
2 | O=C(O)/C=C/c1ccc(O)cc1 [Compound 004, para-coumaric acid] |  |  |  | significantly lower amount of mRNA | a lower amount of HrpN | 0.039 | significantly lower amount of mRNA | significantly lower amount of mRNA
3 | O=C(O)/C=C/c1ccccc1O [Compound 006, Ortho-coumaric acid] |  |  |  | significantly higher amount |  |  | significantly higher amount | 
